From US20260250318A1, “COMPOSITIONS AND METHODS FOR CROSSING THE BLOOD BRAIN BARRIER” (VOYAGER THERAPEUTICS, INC., priority 2022, published 2026)

Assays:
Settings in all cases: synthetic library passage 3, intravenous, relative to wild-type AAV9
[1] = test system: brain; experiment: NGS fold enrichment of synthetic library (passage 3) in BALB/c mice, first cross-species screen; assay type: in vivo
Outline: (§1)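 Fold enrichment versus wild-type AAV9 was derived by NGS of RT-PCR-amplified RNA from nervous tissue, collected e.g. 28 days after IV dosing […]. The library (passage 3) was given to two NHPs aged 2-4 years and to 6-8-week BALB/c and C57Bl/6 mice (n=3 each).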

[2] = test system: brain, spinal cord, and DRG of the NHPs; experiment: NGS fold enrichment of synthetic library (passage 3) in NHPs, first cross-species screen; assay type: in vivo, cynomolgus macaques (Macaca fascicularis)
Outline: as §1

[3] = test system: brain; experiment: NGS fold enrichment of synthetic library (passage 3) in C57Bl/6 mice, first cross-species screen; assay type: in vivo
Outline: as §1

[4] = RNA from brain of BALB/c mice, NGS
[5] = RNA from spinal cord of NHPs, NGS
[6] = RNA from brain of C57Bl/6 mice, NGS

| Sequence | Fold enrichment over AAV9 in the brain of Mice (BALB/c) ([1]; RNA NGS, brain of BALB/c mice) [fold] | Fold enrichment over AAV9 in the brain of NHPs ([2]; RNA NGS, brain of NHPs) [fold] | Fold enrichment over AAV9 in the spinal cord of NHPs ([2]; RNA NGS, spinal cord of NHPs) [fold] | Fold enrichment over AAV9 in the brain of Mice (C57Bl/6) ([3]; RNA NGS, brain of C57Bl/6 mice) [fold] | Fold enrichment over AAV9 in the brain of Mice (BALB/c) [1, 4] [fold] | Fold enrichment over AAV9 in the brain of NHPs ([2]; RNA from brain of NHPs, NGS) [fold] | Fold enrichment over AAV9 in the spinal cord of NHPs [2, 5] [fold] | Fold enrichment over AAV9 in the brain of Mice (C57Bl/6) [3, 6] [fold] |
| --- | --- | --- | --- | --- | --- | --- | --- | --- |
| GSGQNQQHANLNQT | 0.544 | 1.410 | 0.094 | 0.416 | – | – | – | – |
| GSGQNQQHASSNNT | – | – | – | – | 0.896 | 1.166 | 7.155 | 0.789 |
| GSGQNQQHHSSHTT | – | – | – | – | 0.452 | 1.328 | 2.158 | 0.957 |
| GSGQNQQHPSTQQT | – | – | – | – | 0.680 | 1.205 | 1.552 | 1.017 |
| GSGQNQQHSLSSQT | – | – | – | – | 0.730 | 1.150 | 3.844 | 0.700 |
| GSGQNQQHSSKATT | – | – | – | – | 1.401 | 1.345 | 12.248 | 1.350 |
| GSGQNQQHSSSHLT | 0.859 | 1.581 | 2.782 | 1.091 | – | – | – | – |
| GSGQNQQHVSSPRT | 0.938 | 2.176 | 1.279 | 1.847 | – | – | – | – |
| GSGQNQQHYGSQGT | – | – | – | – | 0.379 | 1.189 | 0.453 | 1.345 |
| GSGQNQQIGESRMT | – | – | – | – | 0.453 | 1.279 | 0.103 | 0.890 |
| GSGQNQQIISTKIT | – | – | – | – | 0.710 | 1.275 | 0.000 | 0.951 |
| GSGQNQQINHRSPT | – | – | – | – | 0.220 | 1.173 | 0.748 | 0.259 |
| GSGQNQQIPHVHQT | – | – | – | – | 0.218 | 1.409 | 0.768 | 0.576 |
| GSGQNQQKLSSMST | – | – | – | – | 1.052 | 1.286 | 1.586 | 1.160 |
| GSGQNQQKQNHGNT | 1.340 | 1.695 | 5.349 | 1.538 | – | – | – | – |
